The values below come from patent publication US11767319B2, “Crystalline forms of a selective c-kit kinase inhibitor” (Third Harmonic Bio, Inc., priority 2020, dated 2023).

Common to all, as to type: physicochemical
Data set [1] is described as follows: Slurry experiments in SGF. As to conditions: 37° C., 500 rpm. The procedure:
About 200 mg of sodium chloride and about 100 mg Triton X-100 was weighted into a 100-mL volumetric flask. About 100 mL of purified water was added to the flask and the solution was sonicated until all solids were completely dissolved. 1 M HCl was added to adjust the pH to 1.8 and the solution was mixed well and the pH was checked with a pH meter.
Competitive slurry experiments were performed for Forms A, H^A, H^B, C and D in SGF. About 10 mg of each form was added into separate HPLC vials followed by addition of 1.0 mL SGF in order to form slurries. The slurries were heated to 37° C. and stirred at 500 rpm. After 2 h or 24 h, the samples were centrifuged and the solids were collected for XRPD testing.

The nature of data set [2]: Vacuum drying of Form C. To be noted: dried under vacuum. The procedure:
(§1) FIG. 1F depicts a set of XRPD patterns of Form C of compound 1, comparing the originally isolated form, material after DVS experiments and material after being dried under vacuum. […] Form G was also observed after vacuum drying of Form C.
Procedure A: Form C of compound 1 was dried under vacuum at 40° C. for about 2 hours. After drying Form G was recovered.

A short description of data set [3]: Dynamic Vapor Sorption (DVS) of Form C. As for the experimental part: Approximately, 10 mg of sample was placed into a mesh vapor sorption balance pan and loaded into a DVS-1/DVS Intrinsic/DVS Advantage dynamic vapor sorption balance by Surface Measurement Systems. The sample was subjected to a ramping profile from 40-90% relative humidity (RH) at 10% increments, maintaining the sample at each step until a stable weight had been achieved (dm/dt 0.004%, minimum step length 30 min, maximum step length 500 min) at 25° C. After completion of the sorption cycle, the sample was dried using the same procedure to 0% RH and then a second sorption cycle back to 40% RH. Two cycles were performed. The weight change during the sorption/desorption cycles were plotted, allowing for the hygroscopic nature of the sample to be determined. XRPD analysis was then carried out on any solid retained.
FIGS. 1D and 1E depict DVS plots of Form C of compound 1. […] Below 20% RH, Form C experienced a mass loss of 8.6%, about equal to 2 equivalents of water.
as §1

Data set [4] can be described thus: Competitive slurry experiments among anhydrates (IPA/IPAc). As to conditions: at RT and 50° C., IPA/IPAc slurries. The procedure:
Competitive slurry experiments were performed in IPA/IPAc at RT/50° C. between anhydrates Form A of compound 1 and Form D of compound 1. Form A of compound 1 was added into each solvent to form a slurry at RT or 50° C. and was stirred for 2 h. The slurries were then filtered to obtain saturated solution. Around 10 mg each of Form A of compound 1 and Form D of compound 1 were added into each solution to form a mixed slurry at RT or 50° C. […] The formation of Form H^A of compound 1 is postulated to be caused by residual water in the solvents or due to ambient humidity (˜35% humidity during slurry experiments).

Data set [5] in a line: Variable temperature XRPD of Form D. To be noted: heating to 150° C. or cooling to 30° C. under N2 purge. As for the experimental part: FIG. 2D depicts a variable temperature XRPD of Form D of compound 1. The variable temperature experiment was conducted to further investigate the weight loss observed in the TGA curve.

Molecules are shown by their SMILES. Entries after “also recorded” stand apart in the source; their conditions may differ.

On to `Cc1ccc(-c2noc([C@H]3C[C@@H]3F)n2)cc1NC(=O)c1cnc2ccccn12` [Form C, N-(5-(5-((1R,2S)-2-fluorocyclopropyl)-1,2,4-oxadiazol-3-yl)-2-methylphenyl)imidazo[1,2-a]pyridine-3-carboxamide], for which, in data set [1], the “XRPD at 2 h” value is recorded as “No form change; also recorded: Form C” and the “XRPD at 24 h” value is given as “No form change; also recorded: Form C”. For the same molecule, the “form after vacuum drying (XRPD)” value in data set [2] was “Form G”. Also, the “form after DVS (XRPD)” value in data set [3] (after DVS experiments) is listed as “converted into Form G”. Further, in data set [3] (below 20% RH, 25° C.), the “mass loss (DVS)” value is recorded as 8.6%. The “total mass uptake (DVS)” value in data set [3] (between 20% and 90% RH, 25° C.) worked out at 0.6%.
On to `Cc1ccc(-c2noc([C@H]3C[C@@H]3F)n2)cc1NC(=O)c1cnc2ccccn12` [Form D, N-(5-(5-((1R,2S)-2-fluorocyclopropyl)-1,2,4-oxadiazol-3-yl)-2-methylphenyl)imidazo[1,2-a]pyridine-3-carboxamide], for which, in data set [1], the “XRPD at 2 h” value was “transformed to Form C”; the “XRPD at 24 h” value was “a mixture of Form C and an HCl salt form”. Further, the relative thermodynamic stability result in data set [4] is given as “thermodynamically more stable than Form A”. For the same molecule, the “form change in variable temperature XRPD” value in data set [5] is recorded as “no form change”.
